Test results taken from paper PMC9495826, “Membranolytic Mechanism of Amphiphilic Antimicrobial β-Stranded [KL]n Peptides” (Biomedicines, 2022).
Like-named read-outs stand apart in the source and are kept apart here. No end group written: not given here.

Columns and labels:
Type in all cases: cell-based
[1] = test system: Bacillus subtilis (DSM 347)
Method: (§1) The antimicrobial activity of the KL peptides was determined with a MIC assay. Peptide activity was tested against Gram-negative Escherichia coli (DSM 1116) and Enterobacter helveticus (DSM 18390) and against Gram-positive Bacillus subtilis (DSM 347) and Staphylococcus xylosus (DSM 20287) as previously reported. Our standard MIC assay was modified to avoid unnecessary exposure of peptides to the phosphate-containing growth medium, which was previously found to affect the results due to phosphate-induced aggregation of peptides. Details can be found in the Supplementary Materials.
(§2) The activity of KL and LK peptides against bacteria was examined using a MIC assay. […] We have previously shown that KL peptides, especially the longer ones, aggregate vigorously in the presence of phosphate ions. […] Therefore, here we used a modified MIC assay that was developed in our previous study, as described in the Methods section. In this approach, a two-fold dilution series was first prepared with peptides dissolved in water, and only thereafter were the bacteria in the medium added so that the peptides were simultaneously exposed to bacteria and phosphate-containing medium.
(§3) 1.3 MIC (minimum inhibitory concentration) assay
(§4) Antimicrobial activity was measured by a minimal inhibitory concentration (MIC) assay, carried out with Gram-positive Bacillus subtilis (DSM 347) and Staphylococcus xylosus (DSM 20287) and with Gram-negative Escherichia coli (DSM 1116) and Enterobacter helvet-icus (DSM 18390). Bacteria were grown in Müller-Hinton medium at 37°C overnight. Bac-terial solutions with OD550 = 0.2 was further diluted 1:100 for Gram-positive and 1:1000 for Gram-negative bacteria to get a concentration of […] colony forming units (CFU)/mL. Mi-crotiter plates (96 wells of 100 μL) were filled peptide solution to obtain serial 2-fold dilu-tion series of peptides. 50 µL of pure water was first added to each well. To the first well 50 µL peptide solution was added, after mixing 50 µL of this was transferred to the second well and so on. After all plates were prepared, 50 µL bacterial solution in double-concen-tration MHM was added to the wells (except for the final row of each plate) to give a final concentration of 5 × 10^5 CFU/mL in the wells. Thus, peptides got in contact with phosphate and bacteria simultaneously. […]
(§5) gregate stronlgy in contact with the phosphate containing growth medium. The two final rows of each plate remained without peptide, so that the penultimate data point served as the positive co ntrol (no peptide), and the final one as the negative control (not inoculated). The plates were incubated at 37°C for 20 h, and cell viability was probed by addition of 20 µL 0.2 mg/mL resazurin and incubation at 37°C for 2 h. The MIC value was determined visually as the lowest peptide concentration inhibiting bacterial growth. […]
(§6) Unencapsulated dye was removed by gel filtration using spin columns filled with Sephacryl 100-HR (Sigma-Aldrich, Taufkirchen, Germany), and equilibrated with an elu-tion buffer (150 mM NaCl, 10 mM HEPES, pH 7.5), which balances the internal vesicle

[2] = test system: Enterobacter helveticus (DSM 18390)
Method: as §1, §2, §3, §4, §5, §6

[3] = test system: Escherichia coli (DSM 1116)
Method: as §1, §2, §3, §4, §5, §6

[4] = test system: Staphylococcus xylosus (DSM 20287)
Method: as §1, §2, §3, §4, §5, §6

erythrocytes = experiment: Hemolysis assay
[5] = Gram-positive, modified MIC: 2-fold dilution series of peptide in water, then bacteria in double-concentration Müller-Hinton medium, 5 × 10^5 CFU/mL, 37°C 20 h, resazurin, visual
[6] = Gram-negative, modified MIC: 2-fold dilution series of peptide in water, then bacteria in double-concentration Müller-Hinton medium, 5 × 10^5 CFU/mL, 37°C 20 h, resazurin, visual

| Substance | MIC B. subtilis ([1]; DSM 347, 20 h) | MIC E. helveticus ([2]; DSM 18390, 20 h) | MIC E. coli ([3]; DSM 1116, 20 h) | MIC S. xylosus ([4]; DSM 20287, 20 h) | Hemolysis HC50 (concentration of peptide giving 50% hemolysis) (erythrocytes; 20 h) | further results |
| --- | --- | --- | --- | --- | --- | --- |
| KLKLKL-NH2 [KL6] | >256 µg/mL | 128 µg/mL | >256 µg/mL | 256 µg/mL | >256 µg/mL | Hemolytic activity (in words) (erythrocytes): very low hemolytic activity |
| KLKLKLKL-NH2 [KL8] | 16 µg/mL | 16 µg/mL | 64 µg/mL | 8 µg/mL | >256 µg/mL | Hemolytic activity (in words) (erythrocytes): very low hemolytic activity |
| KLKLKLKLK-NH2 [KL9] | 16 µg/mL | 8 µg/mL | 32 µg/mL | 2 µg/mL | >256 µg/mL | Hemolysis (erythrocytes; 20 h, 1 µg/mL): 5%; Hemolysis (erythrocytes; 20 h, 2 µg/mL): 6%; Hemolysis (erythrocytes; 20 h, 4 µg/mL): 8%; Hemolysis (erythrocytes; 20 h, 8 µg/mL): 9%; Hemolysis (erythrocytes; 20 h, 16 µg/mL): 9%; Hemolysis (erythrocytes; 20 h, 32 µg/mL): 11%; Hemolysis (erythrocytes; 20 h, 64 µg/mL): 14%; Hemolysis (erythrocytes; 20 h, 128 µg/mL): 18%; Hemolysis (erythrocytes; 20 h, 256 µg/mL): 20%; Hemolytic activity (in words) (erythrocytes; erythrocytes, 37°C 30 min): very low hemolytic activity |
| KLKLKLKLKLK-NH2 [KL11] | 4 µg/mL | 2 µg/mL | 4 µg/mL | 1 µg/mL | >256 µg/mL | Hemolytic activity (in words) (erythrocytes): very low hemolytic activity |
| KLKLKLKLKLKL-NH2 [KL12] | 2 µg/mL | 2 µg/mL | 2 µg/mL | 2 µg/mL | 8 µg/mL | – |
| KLKLKLKLKLKLK-NH2 [KL13] | 2 µg/mL | 1 µg/mL | 2 µg/mL | 1 µg/mL | 9 µg/mL | – |
| KLKLKLKLKLKLKLK-NH2 [KL15] | 4 µg/mL | 2 µg/mL | 8 µg/mL | 2 µg/mL | 2 µg/mL | – |
| KLKLKLKLKLKLKLKL-NH2 [KL16] | 16 µg/mL | 8 µg/mL | 32 µg/mL | 8 µg/mL | 2 µg/mL | – |
| KLKLKLKLKLKLKLKLKLKL-NH2 [KL20] | 32 µg/mL | 32 µg/mL | 32 µg/mL | 16 µg/mL | <1 µg/mL | – |
| KLKLKLKLKLKLKLKLKLKLKL-NH2 [KL22] | 32 µg/mL | 32 µg/mL | 32 µg/mL | 16 µg/mL | <1 µg/mL | – |
| KLKLKLKLKLKLKLKLKLKLKLKL-NH2 [KL24] | 32 µg/mL | 16 µg/mL | 32 µg/mL | 8 µg/mL | <1 µg/mL | – |
| KLKLKLKLKLKLKLKLKLKLKLKLKL-NH2 [KL26] | – | – | – | – | – | MIC B. subtilis [1, 5]: 32 µg/mL; MIC E. helveticus [2, 6]: 16 µg/mL; MIC E. coli [3, 6]: 64 µg/mL; MIC S. xylosus [4, 5]: 16 µg/mL; Hemolysis HC50 (concentration of peptide giving 50% hemolysis) (erythrocytes; interpolated from concentration-dependent curves, washed erythrocytes of healthy donors, 37°C 30 min, absorbance 540 nm, 100% = 1% Triton X-100): <1 µg/mL; Hemolysis (erythrocytes; peptide 1 µg/mL, erythrocytes of healthy donors, 37°C 30 min, A540, relative to Triton-X 100%, average of three absorbance measurements): 52%; Hemolysis (erythrocytes; peptide 2 µg/mL, erythrocytes of healthy donors, 37°C 30 min, A540, relative to Triton-X 100%, average of three absorbance measurements): 71%; Hemolysis (erythrocytes; peptide 4 µg/mL, erythrocytes of healthy donors, 37°C 30 min, A540, relative to Triton-X 100%, average of three absorbance measurements): 72%; Hemolysis (erythrocytes; peptide 8 µg/mL, erythrocytes of healthy donors, 37°C 30 min, A540, relative to Triton-X 100%, average of three absorbance measurements): 72%; Hemolysis (erythrocytes; peptide 16 µg/mL, erythrocytes of healthy donors, 37°C 30 min, A540, relative to Triton-X 100%, average of three absorbance measurements): 56%; Hemolysis (erythrocytes; peptide 32 µg/mL, erythrocytes of healthy donors, 37°C 30 min, A540, relative to Triton-X 100%, average of three absorbance measurements): 50%; Hemolysis (erythrocytes; peptide 64 µg/mL, erythrocytes of healthy donors, 37°C 30 min, A540, relative to Triton-X 100%, average of three absorbance measurements): 47%; Hemolysis (erythrocytes; peptide 128 µg/mL, erythrocytes of healthy donors, 37°C 30 min, A540, relative to Triton-X 100%, average of three absorbance measurements): 42%; Hemolysis (erythrocytes; peptide 256 µg/mL, erythrocytes of healthy donors, 37°C 30 min, A540, relative to Triton-X 100%, average of three absorbance measurements): 39% |
| LKLKLKLKL-NH2 [LK9] | 4 µg/mL | 4 µg/mL | 16 µg/mL | 2 µg/mL | 145 µg/mL | – |
| LKLKLKLKLK-NH2 [LK10] | 4 µg/mL | 2 µg/mL | 8 µg/mL | 1 µg/mL | 256 µg/mL | – |
| LKLKLKLKLKL-NH2 [LK11] | 2 µg/mL | 1 µg/mL | 2 µg/mL | 1 µg/mL | 3 µg/mL | – |
| LKLKLKLKLKLKL-NH2 [LK13] | 8 µg/mL | 4 µg/mL | 8 µg/mL | 4 µg/mL | 2 µg/mL | – |
| LKLKLKLKLKLKLKL-NH2 [LK15] | 16 µg/mL | 16 µg/mL | 64 µg/mL | 16 µg/mL | <1 µg/mL | – |
